Experimental findings from PubChem BioAssay (NCI) are described below.

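Each compound was tested at five concentrations against cells in 96-well plates for 48 hours. Definition used: TGI = concentration required for complete inhibition of growth.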

Some test systems named below: SK-MEL-28 melanoma; M19-MEL melanoma; HL-60(TB) leukemia; KM12 colon; TK-10 renal; SR leukemia; UACC-257 melanoma; CCRF-CEM leukemia; A498 renal; HCT-116 colon; EKVX NSCLC; RPMI-8226 leukemia; HOP-92 NSCLC; HCT-15 colon; MOLT-4 leukemia; K-562 leukemia; SW-620 colon; CAKI-1 renal.
Test in all cases: DTP human tumour cell line panel, 48 h

By TGI is commonly meant the concentration at which net growth stops. Higher therefore signals less potent growth arrest. As for `c1ccc(Nc2nnc(CSc3nc(-c4ccccc4)c(-c4ccccc4)[nH]3)s2)cc1`, the TGI in the assay with SK-MEL-28 melanoma is 44.6 µM; in the assay with M19-MEL melanoma, 28.6 µM; in the assay with HL-60(TB) leukemia it was 31.4 µM; with KM12 colon it was 44.1 µM; with TK-10 renal, greater than 100 µM; in the assay with SR leukemia, 51.1 µM. In addition, the TGI in the assay with UACC-257 melanoma was found to be 50 µM; with CCRF-CEM leukemia, 49.1 µM; in the assay on A498 renal, 49.1 µM; in the assay with HCT-116 colon, 35.7 µM; in the assay on EKVX NSCLC, 51.5 µM; in the assay with RPMI-8226 leukemia, 50.4 µM. The results for the TGI in the assay on HOP-92 NSCLC, with HCT-15 colon and in the assay on MOLT-4 leukemia were 37.7 µM, 49.9 µM and 29.8 µM, respectively.
As to `O=P(O)(OCC(O)O)OCC(O)O`, the TGI with SK-MEL-28 melanoma, in the assay on M19-MEL melanoma, in the assay with HL-60(TB) leukemia, with K-562 leukemia, in the assay on KM12 colon and with TK-10 renal was greater than 100 µM throughout. For the same compound, the TGI with UACC-257 melanoma, with CCRF-CEM leukemia, with A498 renal, in the assay with HCT-116 colon, with EKVX NSCLC and in the assay on RPMI-8226 leukemia was greater than 100 µM each time. For the same compound, the TGI in the assay on HOP-92 NSCLC, in the assay with SW-620 colon and in the assay with MOLT-4 leukemia was greater than 100 µM each time.
Take `CCOC(C[C@H](O)[C@H]1COC(=S)S1)OCC`: the TGI in the assay on M19-MEL melanoma, in the assay on HL-60(TB) leukemia, in the assay with KM12 colon, in the assay with TK-10 renal, with SR leukemia and with UACC-257 melanoma was greater than 100 µM throughout. Besides, the TGI in the assay on HCT-116 colon, in the assay with EKVX NSCLC, in the assay on RPMI-8226 leukemia, in the assay with SW-620 colon and in the assay on HCT-15 colon was greater than 100 µM each time.
Take `O=S(=O)([O-])[O-].[Fe+2].c1ccc(/C(=N\Nc2ccccn2)c2ccccn2)cc1`: the TGI came to 10.5 µM in the assay on CAKI-1 renal; 4.25 µM in the assay with M19-MEL melanoma; 4.62 µM in the assay with HL-60(TB) leukemia; 8.44 µM with K-562 leukemia; 14.6 µM in the assay with KM12 colon; 7.73 µM in the assay with TK-10 renal. The total growth inhibition concentration (TGI) is 4.39 µM in the assay with UACC-257 melanoma; 9.71 µM in the assay on CCRF-CEM leukemia; 24.2 µM in the assay on A498 renal; 4.56 µM in the assay on HCT-116 colon; 4.72 µM in the assay on EKVX NSCLC; 12.4 µM with RPMI-8226 leukemia. The TGI in the assay with HOP-92 NSCLC amounted to 7.67 µM; with SW-620 colon, 11.2 µM; with HCT-15 colon it was 11.3 µM; in the assay on MOLT-4 leukemia it was 6.13 µM.
In the case of `NS(=O)(=O)c1cc2c(cc1Cl)NC(C(=O)c1cc(=O)c3ccc(O)cc3o1)=NS2(=O)=O`, the TGI in the assay on SK-MEL-28 melanoma, in the assay with CAKI-1 renal, in the assay on M19-MEL melanoma, with HL-60(TB) leukemia, in the assay on K-562 leukemia and in the assay with KM12 colon was greater than 100 µM in each case. The TGI with TK-10 renal, with SR leukemia, in the assay with UACC-257 melanoma, in the assay on CCRF-CEM leukemia, in the assay with A498 renal and in the assay with HCT-116 colon was greater than 100 µM in each case. For the same compound, the TGI in the assay on EKVX NSCLC, with RPMI-8226 leukemia, in the assay with HOP-92 NSCLC, with SW-620 colon, in the assay with HCT-15 colon and in the assay on MOLT-4 leukemia was greater than 100 µM in each case.
In the case of `CC(C)=CCCC1(C)C=Cc2c(c(C)cc3c2[nH]c2cc(O)ccc23)O1` (configuration not stated), the TGI with SK-MEL-28 melanoma, with M19-MEL melanoma, in the assay on HL-60(TB) leukemia, in the assay on K-562 leukemia, in the assay with KM12 colon and in the assay with TK-10 renal was greater than 25 µM throughout. The TGI in the assay on SR leukemia, in the assay with CCRF-CEM leukemia, with HCT-116 colon, in the assay on RPMI-8226 leukemia, with HOP-92 NSCLC and in the assay on SW-620 colon was greater than 25 µM each time. Besides, the TGI in the assay on HCT-15 colon and with MOLT-4 leukemia was greater than 25 µM in each case.
Turning to `COc1cc(/C=C\c2ccccn2)cc(OC)c1OC`, the TGI in the assay with SK-MEL-28 melanoma, with CAKI-1 renal, with M19-MEL melanoma, in the assay with HL-60(TB) leukemia, in the assay on K-562 leukemia and with KM12 colon was greater than 100 µM each time. Also, the TGI in the assay on TK-10 renal, in the assay with UACC-257 melanoma, with CCRF-CEM leukemia, in the assay with A498 renal, in the assay with HCT-116 colon and in the assay with EKVX NSCLC was greater than 100 µM in each case. The TGI with RPMI-8226 leukemia, with HOP-92 NSCLC, in the assay on SW-620 colon, in the assay on HCT-15 colon and in the assay on MOLT-4 leukemia was greater than 100 µM each time.
Take `CN(C(=O)C12C3C4C1C1C2C3C41I)C(C)(C)C` (configuration not stated): the TGI in the assay with SK-MEL-28 melanoma was greater than 100 µM; with CAKI-1 renal it was greater than 100 µM; in the assay on M19-MEL melanoma it was greater than 100 µM; in the assay on HL-60(TB) leukemia it was greater than 92.7 µM; in the assay with K-562 leukemia, greater than 100 µM; in the assay on KM12 colon, greater than 100 µM. For the same compound, the TGI with TK-10 renal is greater than 100 µM; in the assay with SR leukemia, greater than 31.6 µM; with UACC-257 melanoma it was greater than 100 µM; in the assay with CCRF-CEM leukemia, greater than 43 µM; in the assay on A498 renal, greater than 100 µM; in the assay on HCT-116 colon, greater than 100 µM. The concentration for total growth inhibition (TGI) in the assay with EKVX NSCLC was greater than 100 µM; with RPMI-8226 leukemia, greater than 100 µM; with SW-620 colon, greater than 100 µM; in the assay with HCT-15 colon, greater than 100 µM; in the assay with MOLT-4 leukemia, greater than 47.3 µM.
`CN(C)c1ccc(/C=C/C=C\C2=CC(=C\C=C/C=C3C=CC(=[N+](C)C)C=C3)/Sc3ccccc32)cc1`: the TGI was 28.9 µM in the assay on SK-MEL-28 melanoma; 35 µM in the assay on M19-MEL melanoma; greater than 100 µM in the assay on HL-60(TB) leukemia; greater than 100 µM in the assay on K-562 leukemia; greater than 100 µM in the assay with KM12 colon; greater than 100 µM in the assay with TK-10 renal. The TGI in the assay with UACC-257 melanoma, in the assay on A498 renal, with HCT-116 colon, in the assay with EKVX NSCLC, in the assay with RPMI-8226 leukemia and with SW-620 colon was greater than 100 µM in each case. In addition, the TGI with HCT-15 colon and in the assay on MOLT-4 leukemia was greater than 100 µM each time.
